Measured values: BigSolDB 2.1

CSCC[C@H](NC(C)=O)C(=O)O
solubility (mole fraction)
Details | 283.15 K | 288.15 K | 293.15 K | 298.15 K | 303.15 K | 308.15 K | 313.15 K | 318.15 K | 323.15 K
in 2-butanone | 0.0192 | 0.0243 | 0.0316 | 0.0408 | 0.0546 | 0.0764 | 0.112 | 0.135 | 0.18
in acetone | 0.0372 | 0.0524 | 0.0643 | 0.0899 | 0.118 | 0.154 | 0.195 | 0.231 | 0.283
in acetonitrile | 0.00684 | 0.00873 | 0.0119 | 0.0167 | 0.0238 | 0.0354 | 0.0549 | 0.0912 | 0.154
in dimethyl carbonate | 0.00222 | 0.00268 | 0.00369 | 0.00531 | 0.00614 | 0.00835 | 0.0109 | 0.0151 | 0.0216
in ethanol | 0.0966 | 0.121 | 0.145 | 0.163 | 0.186 | 0.222 | 0.285 | 0.343 | 0.409
in ethyl acetate | 0.00553 | 0.00645 | 0.00846 | 0.0101 | 0.0134 | 0.0169 | 0.022 | 0.0284 | 0.0399
in methyl acetate | 0.00709 | 0.00877 | 0.0113 | 0.015 | 0.0193 | 0.026 | 0.0358 | 0.052 | 0.0821
in n-butanol | 0.0531 | 0.0697 | 0.084 | 0.103 | 0.121 | 0.145 | 0.175 | 0.207 | 0.242
in n-butyl acetate | 0.00312 | 0.00346 | 0.00409 | 0.00536 | 0.00667 | 0.00833 | 0.0103 | 0.0137 | 0.0171
in n-pentanol | 0.0417 | 0.05 | 0.0609 | 0.0755 | 0.0901 | 0.113 | 0.14 | 0.167 | 0.212
in n-propanol | 0.0668 | 0.0825 | 0.099 | 0.127 | 0.158 | 0.191 | 0.237 | 0.281 | 0.327
in n-propyl acetate | 0.0037 | 0.00414 | 0.00487 | 0.00685 | 0.00834 | 0.0107 | 0.013 | 0.0171 | 0.021
